Reference: US20240391965A1, “STAPLED ANTIMICROBIAL PEPTIDES (STAMPS) AND USES THEREOF” (Lytica Therapeutics, Inc., priority 2021, published 2024)
≈ marks a conversion by molar mass, not a printed value. Starred links: 1 amine or outer side, 2 acyl side, 3 side chain; linkers in the order of their positions; H or OH if unused. Positions of bridges follow the written chain, without caps; N, C: chain ends. Residues, ends and D or L forms follow the SMILES beside them. 2,2'Bipyridine(5,5'-diCH2) = c1cc(-c2ccc(C[*:2])cn2)ncc1C[*:1]; mXylylene = c1cc(C[*:1])cc(C[*:2])c1; pXylylene = c1cc(C[*:2])ccc1C[*:1]; X1 = C(=CC[*:2])C[*:1]

How the values were obtained:
[1] = 90 minute cytotoxicity assay (LDH release), renal toxicity; assay type: cell-based; conditions: 90 minutes of incubation, LDH release; read-out: Inhibitory Concentration at 50% Cytotoxicity (IC50) Human Renal Proximal Tubule Epithelial Cells (RPTEC)
How it was run: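 RPTEC plated overnight, given fresh medium, then exposed to serial peptide dilutions or vehicle for 90 min at 37° C. Medium LDH measured by 10 min reagent incubation and absorbance at 490 nm.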

[2] = 48 hours cytotoxicity assay (CellTiter-Glo), liver toxicity; assay type: cell-based, human; conditions: 48 hours of incubation, CellTiter-Glo; read-out: Inhibitory Concentration at 50% Cytotoxicity (IC50) Human Liver Cells (HepG2)
How it was run: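 HepG2 cells in EMEM with 10% FBS, allowed to attach 4 h, then exposed to serially diluted StAMPs or vehicle for 48 h at 37 °C. Viability read by CellTiter-Glo luminescence.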

[3] = system: Pseudomonas aeruginosa (P. aeruginosa); assay type: cell-based; conditions: microbroth dilution, 20-24 hours at 37° C.
Procedure: (§1) Antimicrobial Activity Assay: The following microbroth dilution protocol was adapted from CLSI to determine the minimum inhibitory concentration (MIC) of StAMPs. Briefly, Mueller-Hinton broth (MHB) or cation-adjusted Mueller-Hinton broth (MHB II) was prepared and autoclaved. Then, a colony of bacterial cells was picked and grown overnight in broth at 37° C. and then diluted and allowed to grow again for 3-4 hours. Serial dilutions of peptide stocks in water (10 μl) were prepared using clear round-bottom polypropylene 96-well plates. Then 90 μl of bacteria in broth was added to give a final inoculum of 5×10^5 CFU/ml. The plates were then covered with porous tape to reduce evaporation and incubated for 20-24 hours at 37° C. The MIC was the minimum peptide concentration at which no visible bacterial growth was observed.

[4] = system: Escherichia coli (E. coli); assay type: cell-based; conditions: microbroth dilution, 20-24 hours at 37° C.
Procedure: as §1

[5] = system: Staphylococcus aureus (S. aureus); assay type: cell-based; conditions: microbroth dilution, 20-24 hours at 37° C.
Procedure: as §1

[6] = system: Klebsiella pneumoniae (K. pneumoniae); assay type: cell-based; conditions: microbroth dilution, 20-24 hours at 37° C.
Procedure: as §1

[7] = system: Acinetobacter baumannii (A. baumannii); assay type: cell-based; conditions: microbroth dilution, 20-24 hours at 37° C.
Procedure: as §1

SMILES	IC50 [1]	IC50 [2]	Minimum Inhibitory Concentration (MIC) P. aeruginosa [3]	Minimum Inhibitory Concentration (MIC) E. coli [4]	Minimum Inhibitory Concentration (MIC) S. aureus [5]	Minimum Inhibitory Concentration (MIC) K. pneumoniae [6]	Minimum Inhibitory Concentration (MIC) A. baumannii [7]
CC[C@H](C)[C@H](NC(=O)CN)C(=O)N[C@@H](Cc1ccccc1)C(=O)N[C@@H](CO)C(=O)N[C@@H](CCCCN)C(=O)N[C@@H](CC(C)C)C(=O)N[C@H]1CSCc2cccc(c2)CSC[C@@H](C(=O)N[C@@H](CCCCN)C(=O)N[C@@H](CC(N)=O)C(=O)N[C@@H](CC(C)C)C(=O)N[C@@H](CC(C)C)C(=O)N[C@H](C(=O)N[C@@H](CO)C(=O)NCC(=O)N[C@@H](CC(C)C)C(=O)N[C@@H](CCCCN)C(=O)NCC(N)=O)[C@@H](C)CC)NC(=O)[C@H](CCCCN)NC(=O)[C@H](CCCCN)NC(=O)CNC1=O [compound 2] (H-GIFSKLCGKKCKNLLISGLKG-NH2; linker 7-11 via mXylylene)	101 mg/L (≈ 43.7 µM)	97 mg/L (≈ 42 µM)	8 mg/L	2 mg/L	>64 mg/L	16 mg/L	4 mg/L
CC[C@H](C)[C@H](NC(=O)CN)C(=O)N[C@@H](Cc1ccccc1)C(=O)N[C@@H](CO)C(=O)N[C@@H](CCCCN)C(=O)N[C@@H](CC(C)C)C(=O)N[C@@H](C)C(=O)NCC(=O)N[C@@H](CCCCN)C(=O)N[C@@H](CCCCN)C(=O)N[C@H](C(=O)N[C@@H](CCCCN)C(=O)N[C@@H](CC(N)=O)C(=O)N[C@@H](CC(C)C)C(=O)N[C@H]1CSCc2ccc(cc2)CSC[C@@H](C(=O)N[C@@H](CCCCN)C(=O)NCC(N)=O)NC(=O)CNC(=O)[C@H](CO)NC(=O)[C@H]([C@@H](C)CC)NC1=O)[C@@H](C)CC [compound 30] (H-GIFSKLAGKKIKNLCISGCKG-NH2; linker 15-19 via pXylylene)	> 200 mg/L	> 200 mg/L	64 mg/L	64 mg/L	>64 mg/L	>64 mg/L	16 mg/L
CC[C@H](C)[C@H](NC(=O)CN)C(=O)N[C@@H](Cc1ccccc1)C(=O)N[C@@H](CO)C(=O)N[C@@H](CCCCN)C(=O)N[C@@H](CC(C)C)C(=O)N[C@@H](C)C(=O)NCC(=O)N[C@@H](CCCCN)C(=O)N[C@@H](CCCCN)C(=O)N[C@H](C(=O)N[C@@H](CCCCN)C(=O)N[C@@H](CC(N)=O)C(=O)N[C@@H](CC(C)C)C(=O)N[C@@H](CC(C)C)C(=O)N[C@H]1CSCc2cccc(c2)CSC[C@@H](C(=O)NCC(N)=O)NC(=O)[C@H](CC(C)C)NC(=O)CNC(=O)[C@H](CO)NC1=O)[C@@H](C)CC [compound 32] (H-GIFSKLAGKKIKNLLCSGLCG-NH2; linker 16-20 via mXylylene)	30 mg/L (≈ 13.3 µM)	41 mg/L (≈ 18.2 µM)	16 mg/L	2 mg/L	>64 mg/L	8 mg/L	2 mg/L
CC[C@H](C)[C@H](NC(=O)CN)C(=O)N[C@H]1CSCc2ccc(nc2)-c2ccc(cn2)CSC[C@@H](C(=O)N[C@H](C(=O)N[C@@H](CCCCN)C(=O)N[C@@H](CC(N)=O)C(=O)N[C@@H](CC(C)C)C(=O)N[C@@H](CC(C)C)C(=O)N[C@H](C(=O)N[C@@H](CO)C(=O)NCC(=O)N[C@@H](CC(C)C)C(=O)N[C@@H](CCCCN)C(=O)NCC(N)=O)[C@@H](C)CC)[C@@H](C)CC)NC(=O)[C@H](CCCCN)NC(=O)CNC(=O)[C@H](C)NC(=O)[C@H](CC(C)C)NC(=O)[C@H](CCCCN)NC(=O)[C@H](CO)NC1=O [compound 54] (H-GICSKLAGKCIKNLLISGLKG-NH2; linker 3-10 via 2,2'Bipyridine(5,5'-diCH2); N-terminus assumed)	81 mg/L (≈ 35.3 µM)	43 mg/L (≈ 18.7 µM)	64 mg/L	8 mg/L	64 mg/L	16 mg/L	8 mg/L
CC[C@H](C)[C@H](NC(=O)CN)C(=O)N[C@@H](Cc1ccccc1)C(=O)N[C@@H](CO)C(=O)N[C@@H](CCCCN)C(=O)N[C@@H](CC(C)C)C(=O)N[C@@H](C)C(=O)NCC(=O)N[C@H]1CSCc2ccc(cc2)CSC[C@@H](C(=O)N[C@@H](CC(C)C)C(=O)N[C@@H](CC(C)C)C(=O)N[C@H](C(=O)N[C@@H](CO)C(=O)NCC(=O)N[C@@H](CC(C)C)C(=O)N[C@@H](CCCCN)C(=O)NCC(N)=O)[C@@H](C)CC)NC(=O)[C@H](CCCCN)NC(=O)[C@H]([C@@H](C)CC)NC(=O)[C@H](CCCCN)NC1=O [compound 13] (H-GIFSKLAGCKIKCLLISGLKG-NH2; linker 9-13 via pXylylene)	> 200 mg/L	> 200 mg/L	64 mg/L	32 mg/L	>64 mg/L	64 mg/L	32 mg/L
CC[C@H](C)[C@H](NC(=O)CN)C(=O)N[C@@H](Cc1ccccc1)C(=O)N[C@@H](CO)C(=O)N[C@@H](CCCCN)C(=O)N[C@@H](CC(C)C)C(=O)N[C@@H](C)C(=O)NCC(=O)N[C@@H](CCCCN)C(=O)N[C@@H](CCCCN)C(=O)N[C@H](C(=O)N[C@H]1CSCC=CCSC[C@@H](C(=O)N[C@@H](CO)C(=O)NCC(=O)N[C@@H](CC(C)C)C(=O)N[C@@H](CCCCN)C(=O)NCC(N)=O)NC(=O)[C@H](CC(C)C)NC(=O)[C@H](CC(C)C)NC(=O)[C@H](CC(N)=O)NC1=O)[C@@H](C)CC [compound 22] (H-GIFSKLAGKKICNLLCSGLKG-NH2; linker 12-16 via X1)	> 200 mg/L	> 200 mg/L	64 mg/L	32 mg/L	>64 mg/L	>64 mg/L	64 mg/L
CC[C@H](C)[C@H](NC(=O)CN)C(=O)N[C@@H](Cc1ccccc1)C(=O)N[C@@H](CO)C(=O)N[C@@H](CCCCN)C(=O)N[C@@H](CC(C)C)C(=O)N[C@@H](C)C(=O)NCC(=O)N[C@@H](CCCCN)C(=O)N[C@@H](CCCCN)C(=O)N[C@H](C(=O)N[C@H]1CSCc2cccc(c2)CSC[C@@H](C(=O)N[C@@H](CO)C(=O)NCC(=O)N[C@@H](CC(C)C)C(=O)N[C@@H](CCCCN)C(=O)NCC(N)=O)NC(=O)[C@H](CC(C)C)NC(=O)[C@H](CC(C)C)NC(=O)[C@H](CC(N)=O)NC1=O)[C@@H](C)CC [compound 20] (H-GIFSKLAGKKICNLLCSGLKG-NH2; linker 12-16 via mXylylene)	25 mg/L (≈ 11.1 µM)	40 mg/L (≈ 17.8 µM)	16 mg/L	8 mg/L	64 mg/L	16 mg/L	8 mg/L
CC[C@H](C)[C@H](NC(=O)CN)C(=O)N[C@@H](Cc1ccccc1)C(=O)N[C@@H](CO)C(=O)N[C@@H](CCCCN)C(=O)N[C@@H](CC(C)C)C(=O)N[C@@H](C)C(=O)NCC(=O)N[C@@H](CCCCN)C(=O)N[C@@H](CCCCN)C(=O)N[C@H](C(=O)N[C@H]1CSCc2ccc(cc2)CSC[C@@H](C(=O)N[C@@H](CO)C(=O)NCC(=O)N[C@@H](CC(C)C)C(=O)N[C@@H](CCCCN)C(=O)NCC(N)=O)NC(=O)[C@H](CC(C)C)NC(=O)[C@H](CC(C)C)NC(=O)[C@H](CC(N)=O)NC1=O)[C@@H](C)CC [compound 21] (H-GIFSKLAGKKICNLLCSGLKG-NH2; linker 12-16 via pXylylene)	96 mg/L (≈ 42.6 µM)	200 mg/L (≈ 88.8 µM)	32 mg/L	8 mg/L	>64 mg/L	32 mg/L	16 mg/L
CC[C@H](C)[C@H](NC(=O)CN)C(=O)N[C@@H](Cc1ccccc1)C(=O)N[C@@H](CO)C(=O)N[C@@H](CCCCN)C(=O)N[C@@H](CC(C)C)C(=O)N[C@H]1CSCc2ccc(cc2)CSC[C@@H](C(=O)N[C@@H](CCCCN)C(=O)N[C@@H](CC(N)=O)C(=O)N[C@@H](CC(C)C)C(=O)N[C@@H](CC(C)C)C(=O)N[C@H](C(=O)N[C@@H](CO)C(=O)NCC(=O)N[C@@H](CC(C)C)C(=O)N[C@@H](CCCCN)C(=O)NCC(N)=O)[C@@H](C)CC)NC(=O)[C@H](CCCCN)NC(=O)[C@H](CCCCN)NC(=O)CNC1=O [compound 3] (H-GIFSKLCGKKCKNLLISGLKG-NH2; linker 7-11 via pXylylene)	79 mg/L (≈ 34.2 µM)	86 mg/L (≈ 37.2 µM)	8 mg/L	2 mg/L	>64 mg/L	16 mg/L	2 mg/L
